For 31 compounds, EC50 results are on record in patent publication US8183263B2 (priority 2007, dated 2012).

Bounds are passed on as bounds.

The experiment concerns HCV replicon. The experiment is described as follows: HCV replicon replication assay (NPT level by captured ELISA). It is filed as cell-based. The following applies: Hepatitis C virus, 72 h; Huh-7 HCV replicon-containing cells, three days incubation; read-out: Activity (inhibition of HCV replicon replication). The procedure:
Compounds claimed herein are tested for the ability to inhibit viral replication of the Hepatitis C replicon in cultured cells in which the HCV replicon construct has been incorporated. The HCV replicon system was described by Bartenschlager, et. al (Science, 285, pp. 110-113 (1999)). The replicon system is predictive of in vivo anti-HCV activity; compounds that are active in humans uniformly evidence activity in the replicon assay.
In this assay HCV replicon containing cells are treated with different concentrations of the test compound to ascertain the ability of the test compound to suppress replication of the HCV replicon. As a positive control, HCV replicon-containing cells are treated with different concentrations of interferon alpha, a known inhibitor of HCV replication. The replicon assay system includes Neomycin Phosphotransferase (NPT) as a component of the replicon itself in order to detect the transcription of replicon gene products in the host cell. Cells in which the HCV replicon is actively replicating have high levels of NPT; the level of NPT is proportional to HCV replication. […] The NPT level of each sample is measured using a captured ELISA.
A protocol for testing compounds for the ability to inhibit viral replication of the Hepatitis C replicon cultured cells in which the replicon construct has been incorporated, follows.
The HCV replicon contains, 5′-3′, the HCV-IRES, the neomycin phosphotransferase (neo) gene, the IRES of encephalomyocarditis virus, which directs translation of HCV sequences NS3 to NS5B, and the 3′-NTR. The sequence of the HCV replicon has been deposited in GenBank (Accession no. AJ242652).
The replicon is transfected into Huh-7 cells using standard methods such as electroporation.
The equipment and materials include, but are not limited to, Huh-7 HCV replicon-containing cells, maintenance media (DMEM (Dulbecco's modified Eagle media) supplemented with 10% FBS, L-glutamine, non-essential amino acids, penicillin (100 units/ml), streptomycin (100 micrograms/ml), and 500 micrograms/ml of Geneticin (G418), screening media (DMEM supplemented with 10% FBS, L-glutamine, non-essential amino acids, penicillin (100 units/ml) and streptomycin (100 micrograms/ml)), 96 well tissue culture plates (flat bottom), 96 well plates (U bottom for drug dilution), Interferon alpha for positive control, fixation reagent (such as methanol: acetone), primary antibody (rabbit anti-NPTII), secondary antibody: Eu—N1 1, and enhancement solution.
HCV replicon-containing cells are rinsed with once PBS once; 2 mls of trypsin are then added. Cells are incubated at 37° C. in a 5% CO2 incubator for 3-5 minutes. 10 mls of complete medium is added to stop the reaction. Cells are blown gently, put into a 15 ml tube, and spun at 1200 rpm for four minutes. The trypsin/medium solution is removed and 5 mls of medium (500 ml DMEM (high glucose)) from BRL catalog #12430-054; 50 mls 10% FBS, 5% Geneticin G418 (50 mg/ml, BRL catalog #10131-035), 5 ml MEM non-essential amino acids (100×BRL #11140-050) and 5 ml pen-strep (BRL #15140-148) is added. The cells and media are mixed carefully
Cells are plated with screening medium (500 ml DMEM (BRL #21063-029), 50 ml FBS (BRL #10082-147) and 5 ml MEM non-essential amino acid (BRL #11140-050) at 6000-7500 cells/100 μl/well of 96 well plate (6-7.5×10^5 cells/10 ml/plate). Plates are placed into 37° C. 5% CO2 incubator overnight.
The following morning, drugs (test compounds or interferon alpha) are diluted in 96 well U bottom plates with media or DMSO/media, depending on the final concentration chosen for screening. Generally for 6 concentrations of each test compounds ranging from 10 micromolar to 0.03 micromolar are applied. 100 μl of the test compound dilution is placed in wells of the 96 well plate containing the HCV replicon cells. Media without drug is added to some wells as a negative controls. DMSO is known to affect cell growth. […]
Consider `Fc1ccc(C#CCCOc2ccc(Nc3nc(-c4cccnc4)cs3)cc2C(F)(F)F)cc1` [Cmp 24, N-(4-(4-(4-fluorophenyl)but-3-ynyloxy)-3-(trifluoromethyl)phenyl)-4-(pyridin-3-yl)thiazol-2-amine], for which the EC50 is < 1 µM.

As to `FC(F)(F)c1cc(Nc2nc(-c3cccnc3)cs2)ccc1OC1Cc2ccccc2C1` [Cmp 171, N-(4-(2,3-dihydro-1H-inden-2-yloxy)-3-(trifluoromethyl)phenyl)-4-(pyridin-3-yl)thiazol-2-amine], the EC50 is < 1 µM.

Regarding `CCCCCCCCc1ccc(Nc2nc(-c3cnccn3)cs2)cc1C(F)(F)F` [Cmp 161, N-(4-octyl-3-(trifluoromethyl)phenyl)-4-(pyrazin-2-yl)thiazol-2-amine], the EC50 was < 1 µM.

For `CCc1ccc(Oc2ccc(Nc3nc(-c4cccnc4)cs3)cc2C(C)=O)cc1`, the EC50 was < 1 µM.

Take `CCCCCCCCOc1c(F)cc(Nc2nc(-c3cccnc3)cs2)cc1F` [Cmp 110, N-(3,5-difluoro-4-(octyloxy)phenyl)-4-(pyridin-3-yl)thiazol-2-amine]: the EC50 is < 1 µM.

Consider `CCCCCCCCOc1cc(Nc2nc(-c3ccc(F)cc3)cs2)ccc1C(F)(F)F` [Cmp 75, 4-(4-fluorophenyl)-N-(3-(octyloxy)-4-(trifluoromethyl)phenyl)thiazol-2-amine], for which the EC50 is < 1 µM.

For the compound `Cc1ccc(Nc2nc(-c3ccc(F)cc3)c(F)s2)cc1OCC1CCCCC1` [Cmp 61, N-(3-(cyclohexylmethoxy)-4-methylphenyl)-5-fluoro-4-(4-fluorophenyl)thiazol-2-amine], the EC50 was < 1 µM.

`CCCCCCCCN(C)c1ccc(Nc2nc(-c3cccnc3)c(Cl)s2)cc1C(F)(F)F` [Cmp 158, N^4-(5-chloro-4-(pyridin-3-yl)thiazol-2-yl)-N^1-methyl-N^1-octyl-2-(trifluoromethyl)benzene-1,4-diamine]: the EC50 is < 1 µM.

For `N#Cc1ccc(Oc2ccc(Nc3nc(-c4cccnc4)cs3)cc2C(F)(F)F)cc1` [Cmp 48, 4-(4-(4-(pyridin-3-yl)thiazol-2-ylamino)-2-(trifluoromethyl)phenoxy)benzonitrile], the EC50 was < 1 µM.

Turning to `COc1ncc(-c2csc(Nc3ccc(Oc4ccc(C#N)cc4)c(C(F)(F)F)c3)n2)cn1` [Cmp 52, 4-(4-(4-(2-methoxypyrimidin-5-yl)thiazol-2-ylamino)-2-(trifluoromethyl)phenoxy)benzonitrile], the EC50 was < 1 µM.

As to `FC(F)(F)c1cc(Nc2nc(-c3cccnc3)cs2)ccc1OCCCCc1ccc(Cl)cc1` [Cmp 23, N-(4-(4-(4-chlorophenyl)butoxy)-3-(trifluoromethyl)phenyl)-4-(pyridin-3-yl)thiazol-2-amine], the EC50 was < 1 µM.

For `Cc1ccc(CCCCOc2ccc(Nc3nc(-c4cccnc4)c(F)s3)cc2C(F)(F)F)cc1` [Cmp 107, 5-fluoro-4-(pyridin-3-yl)-N-(4-(4-p-tolylbutoxy)-3-(trifluoromethyl)phenyl)thiazol-2-amine], the EC50 was < 1 µM.

Regarding `CCCCCCCCc1cc2cc(Nc3nc(-c4cncc(C#N)c4)cs3)ccc2o1` [Cmp 203, 5-(2-(2-octylbenzofuran-5-ylamino)thiazol-4-yl)nicotinonitrile], the EC50 is < 1 µM.

For the compound `FC(F)(F)c1cc(Nc2nc(-c3cccnc3)cs2)ccc1Oc1ccc(Cl)cc1` [Cmp 50, N-(4-(4-chlorophenoxy)-3-(trifluoromethyl)phenyl)-4-(pyridin-3-yl)thiazol-2-amine], the EC50 is < 1 µM.

With `CCCCCCCS(=O)(=O)CCc1ccc(Nc2nc(-c3cccnc3)cs2)cc1` [Cmp 20, N-(4-(2-(heptylsulfonyl)ethyl)phenyl)-4-(pyridin-3-yl)thiazol-2-amine], the EC50 was in the range of 1 to 10 µM.

As to `CC/C=C\CCCCOc1ccc(Nc2nc(-c3cccnc3)c(F)s2)cc1C(F)(F)F` [Cmp 165, (Z)-5-fluoro-N-(4-(oct-5-enyloxy)-3-(trifluoromethyl)phenyl)-4-(pyridin-3-yl)thiazol-2-amine], the EC50 is < 1 µM.

Turning to `Cc1ccc(Nc2nc(-c3cccnc3)c(F)s2)cc1OCC1CCCCC1` [Cmp 59, N-(3-(cyclohexylmethoxy)-4-methylphenyl)-5-fluoro-4-(pyridin-3-yl)thiazol-2-amine], the EC50 is < 1 µM.

For the compound `CCCCCCCCc1cc2ccc(Nc3nc(-c4ccc(C)nc4)cs3)cc2o1` [Cmp 115, 4-(6-methylpyridin-3-yl)-N-(2-octylbenzofuran-6-yl)thiazol-2-amine], the EC50 was < 1 µM.

As for `CCc1ccc(Oc2ccc(Nc3nc(-c4cnc(OC)nc4)cs3)cc2C(C)=O)cc1` [Cmp 87, 1-(2-(4-ethylphenoxy)-5-(4-(2-methoxypyrimidin-5-yl)thiazol-2-ylamino)phenyl)ethanone], the EC50 is < 1 µM.

In the case of `CCCCCCC[C@H](C)Oc1ccc(Nc2nc(-c3cccnc3)c(F)s2)cc1C(F)(F)F` [Cmp 232, (S)-5-fluoro-N-(4-(nonan-2-yloxy)-3-(trifluoromethyl)phenyl)-4-(pyridin-3-yl)thiazol-2-amine], the EC50 was < 1 µM.

With `FC(F)(F)c1cc(Nc2nc(-c3cccnc3)cs2)ccc1OCCCCc1cnc2ccccc2c1` [Cmp 145, 4-(pyridin-3-yl)-N-(4-(4-(quinolin-3-yl)butoxy)-3-(trifluoromethyl)phenyl)thiazol-2-amine], the EC50 was < 1 µM.

Consider `CCCCCCCCc1cc2ccc(Nc3nc(-c4cccnc4)c(F)s3)cc2o1` [Cmp 133, 5-fluoro-N-(2-octylbenzofuran-6-yl)-4-(pyridin-3-yl)thiazol-2-amine], for which the EC50 was < 1 µM.

`Cc1ccc(CCCCOc2cc(Nc3nc(-c4cccnc4)c(F)s3)ccc2C(F)(F)F)cc1` [Cmp 126]: the EC50 was < 1 µM.

As to `CCc1ccc(Oc2ccc(Nc3nc(-c4cccnc4)cs3)cc2C(F)(F)F)cc1` [Cmp 49, N-(4-(4-ethylphenoxy)-3-(trifluoromethyl)phenyl)-4-(pyridin-3-yl)thiazol-2-amine], the EC50 was < 1 µM.

Take `CCCCCCCCc1oc2ccc(Nc3nc(-c4cccnc4)cs3)cc2c1Cl` [Cmp 183, N-(3-chloro-2-octylbenzofuran-5-yl)-4-(pyridin-3-yl)thiazol-2-amine]: the EC50 is < 1 µM.

For `CCCCCCCCOc1ccc(N(N)c2nc(-c3cccnc3)c(F)s2)cc1C(F)(F)F` [Cmp 120, 5-fluoro-2-(1-(4-(octyloxy)-3-(trifluoromethyl)phenyl)hydrazinyl)-4-(pyridin-3-yl)thiazole], the EC50 was < 1 µM.

As for `CCCCCCCCc1cc2cc(Nc3nc(-c4ccc5nncn5c4)cs3)ccc2o1` [Cmp 179, 4-([1,2,4]triazolo[4,3-a]pyridin-6-yl)-N-(2-octylbenzofuran-5-yl)thiazol-2-amine], the EC50 is < 1 µM.

`CCCCCCCCc1ccc(Nc2nc(-c3ccc[n+](O)c3)c(F)s2)cc1` [Cmp 39, 5-fluoro-N-(4-octylphenyl)-4-(pyridine-1-oxide-3-yl)thiazol-2-amine]: the EC50 is < 1 µM.

Turning to `COc1ncc(-c2csc(Nc3ccc(Oc4ccccc4)c(C(C)=O)c3)n2)cn1` [Cmp 86, 1-(5-(4-(2-methoxypyrimidin-5-yl)thiazol-2-ylamino)-2-phenoxyphenyl)ethanone], the EC50 was < 1 µM.

With `CCCCCCCCOc1ccc(Nc2nc(-c3ccc4nncn4c3)cs2)cc1C(F)(F)F` [Cmp 177, 4-([1,2,4]triazolo[4,3-a]pyridin-6-yl)-N-(4-(octyloxy)-3-(trifluoromethyl)phenyl)thiazol-2-amine], the EC50 was < 1 µM.

As to `CCCCCCCCc1ccc(Nc2nc(-c3cccnc3)c(F)s2)cc1` [Cmp 31, 5-fluoro-N-(4-octylphenyl)-4-(pyridin-3-yl)thiazol-2-amine], the EC50 is < 1 µM.
